Test results taken from PubChem BioAssay AID1626 (SRMLSC, 2009).

Tested on: M. tuberculosis H37Rv growth inhibition
Test: M. tuberculosis H37Rv growth inhibitors, H37Rv strain (AID 1626)
Details: for IC90: measured here: IC90 against H37Rv; for CC50: measured here: Vero cell cytotoxicity

Compound | IC50 [µM] | IC90 [µM] | CC50 [µM]
O=C(CSc1nc2ccccc2[nH]1)N1c2ccccc2Sc2ccccc21 | 17.4 | > 100 | > 40
Cc1ccc(C(=O)Oc2oc(-c3ccccc3)nc2C=Nc2ccc(N(C)C)cc2)cc1 | – | – | > 40
COC(=O)c1ccc(C(=O)OC)c(NC(=O)CN2CCN(c3ccccc3)CC2)c1 | 66.1 | > 100 | > 40
O=C(Nc1nnc(-c2ccc(Cl)cc2)o1)C1CCCCC1 | 3.32 | > 100 | > 40
CCOC(=O)COc1ccc(/C=C2/SC(=Nc3ccccc3)N(Cc3cccnc3)C2=O)cc1OC | 10.4 | > 100 | > 40
NC1CCN(c2nc3c(cc2F)c(=O)c(C(=O)O)cn3-c2ccc(F)cc2F)C1 (stereo not drawn) | 1.29 | 4.21 | –
CCCCc1ccc(NC(=O)c2cnccn2)cc1 | 52.1 | > 100 | > 40
O=C(Nc1nc(-c2ccc(-c3ccccc3)cc2)cs1)c1cnccn1 | – | > 100 | > 40
Cc1ccc(N/C(N)=N/c2nc(C)cc(N3CCCCC3)n2)c(C)c1 | 2.17 | 3.68 | 9.19
CC(C)(C)Nc1nc(NC(C)(C)C)nc(-n2ccnc2)n1 | 11.4 | 13.1 | –
COc1cnc(-c2ccccn2)nc1Sc1ccc(C)cc1 | < 0.195 | 2.92 | 4.24
COc1cccc(CNc2ccccc2O)c1OCc1ccccc1F | – | > 100 | > 40
CC(=O)Nc1ccc(NC(=O)c2ccc(C3SCC(=O)N3CCc3ccccc3)cc2)cc1 (stereo not drawn) | – | > 100 | –
CC(C)(C)C1CCc2c(sc(NC(=O)CSc3nnc(-c4ccccc4)o3)c2C#N)C1 (stereo not drawn) | – | > 100 | –
Cc1ccc(Nc2c(-c3ccccn3)nc3cc(C)ccn23)cc1 | 1.38 | 1.55 | 1.39
Cc1ccc(-n2c(C)cc(C3N=C(N)Nc4nc5ccccc5n43)c2C)c(C)c1 (stereo not drawn) | 8.26 | 10.8 | > 40
CCOC(=O)c1ccc(NC(=O)CCc2nc(-c3cccc(C)c3)no2)cc1 | 2.76 | > 100 | –
C#CCOCCOCCOCCNc1nc(N2CCN(C(=O)[C@H](Cc3cc4ccccc4[nH]3)n3cc([C@@H](N)CC(C)C)nn3)CC2)nc(N2CCN(C(=O)[C@H](Cc3cc4ccccc4[nH]3)n3cc([C@@H](N)CC(C)C)nn3)CC2)n1 | 4.23 | 7.58 | –
O=C(c1nnsc1S(=O)c1ccc(Cl)cc1)N1CCOCC1 (stereo not drawn) | 8.91 | 10.8 | 14.4
O=C(CNC(=O)c1ccc(-c2ccccc2)cc1)OCc1c(F)cccc1Cl | 7.49 | > 100 | –
CCCOC(=O)c1ccc(NC(=O)Oc2ccccc2)cc1 | 4.53 | > 100 | –

Compound | IC50 [µM] | IC90 [µM] | CC50 [µM]
CCCCCOC(=O)NCCOC(=O)Nc1ccc(C(=O)OCC)cc1 | < 0.195 | > 100 | > 40
CCOC(=O)c1cnc(-n2nc(C)cc2C)nc1N(CC)CC | 3.78 | 6.53 | > 40
Fc1ccc(Sc2nc(-c3ccccc3)nnc2C(F)(F)F)cc1 | 90.4 | > 100 | > 40
CC1CCN(C(=O)COC(=O)c2cc3ccccc3cc2O)CC1 | 0.634 | 2.51 | –
CCCCCCOc1cccc(N)c1 | 16.9 | > 100 | –
O=C(Nc1ccc(-c2csnn2)cc1)C1CC1 | – | > 100 | –
COc1ccc2nc(/N=C(\N)NC(=O)N3c4ccccc4Sc4ccccc43)nc(C)c2c1 | 28.5 | > 100 | > 40
CCOc1ccc(NC(=O)CN2CCN(CC(=O)Nc3ccc(Cl)c(C(F)(F)F)c3)CC2)cc1 | 7.93 | 11.3 | 20.8
COc1ccc(NC2(C#N)CCCCC2)cc1 | – | > 100 | –
CCN(Cc1ccccc1)c1ccc(/C=N/N=C(N)N)cc1 | 5.5 | 6.21 | 8.71
CN1CCN(CCCNC(=O)c2ccc(/C=C3\Sc4ccccc4N(Cc4ccc(F)cc4)C3=O)cc2)CC1 | 6.38 | 11.3 | 12.5
CCOC(=O)CNC(=O)CSc1nc(-c2cccc(C)c2)ns1 | 1.5 | 8.29 | –
COc1ccc(NCc2n[nH]nc2-c2ccccc2)cc1Cl | 25.7 | > 100 | > 40
CCC(=O)Nc1nc(-c2cc([N+](=O)[O-])cs2)cs1 | < 0.195 | > 100 | –
COc1cc(NC(=O)c2c(F)c(F)c(F)c(F)c2F)c(OC)cc1Cl | 0.738 | > 100 | > 40
O=C(COc1ccc(Cl)cc1)Nc1ccc2c(c1)CCC2 | 12.6 | > 100 | –
COc1ccc(-c2noc(CCC(=O)Nc3ccc4c(c3)OCCO4)n2)cc1 | 30.7 | > 100 | –
CC1CCCC(NCC(O)COC(c2ccc(F)cc2)c2ccc(F)cc2)C1C (stereo not drawn) | 5.69 | 6.42 | 24.3
O=C(Oc1ccc(/C=N/O)cc1)c1ccccc1Cl | 28.5 | > 100 | –
Cc1[nH]n2c(=O)cc(C(C)(C)C)nc2c1-c1ccccc1 | 0.407 | 2.91 | 13.1
